Experimental data reported in patent publication US5516790A, “Synthesis and application of alkyl-substituted dibenzofurans as antitumorigenic agents” (Texas A&M University System Technology Licensing Office, priority 1994, dated 1996).
Where two headings read alike, the source gives them in different places.

Columns and labels:
nuclear ER [1] = settings: cited from earlier work
female rat uterus = format: in vivo, female Sprague/Dawley rats
Description: (§1) TCDD or MCDF was co-administered with a second dose of estradiol and the animals were killed 48-hours later. A second group of animals was similarly treated with corn oil, TCDD, MCDF, or TCDD plus MCDF, all administered in corn oil at 10 ml/kg and terminated 72 hours later.
(§2) The animals were terminated by cervical dislocation. Livers were perfused with ice-cold TEDG buffer (10 mM Tris-HCl, 1.5 mM EDTA-4Na, 1 mM dithiothreitol, 10% glycerol (v/v), pH 7.4). Following perfusion in situ, livers were removed, weighed, and homogenized in ice-cold TEDG buffer. Uteri were also removed, weighed, and homogenized in ice-cold buffer. The homogenates were then centrifuged at 800×g […] for 15 minutes and the nuclear pellets were stored at -80° C. The supernatants were further centrifuged at 180,000×g for 1.5 hour. The cytosolic supernatant was also stored at -80° C. Estrogen and progesterone receptor levels were determined within 7 days.

nuclear ER [2] = experiment: Nuclear ER levels in MCF-7 cells; format: cell-based, human; settings: TCDD (10 nM), MCDF (100 nM)
Description: MCF-7 cells, obtained from American Type Culture Collection (Rockville, Ma.), were maintained at 37° C. in closed Corning T-25, 75 or 150 cm^2 flasks (Corning Glassworks, Corning, N.Y.) and passaged in logarithmic growth phase.
For the 2,3,7,8-TCDD antiestrogenicity studies, cells were treated 24 hours prior to harvesting with various concentrations of 2,3,7,8-TCDD (0.1 nM to 100 nM 2,3,7,8-TCDD). Interactive effects between 2,3,7,8-TCDD and estradiol were conducted using these same concentrations of 2,3,7,8-TCDD and 10 nM estradiol. […]
MCF-7 cells from a single near confluent T-25 flask were incubated at 37° C. for 0.5 hours prior to harvesting with 10 nM 2,4,6,7-[^3H]-estradiol. The medium was then decanted and the cells were rinsed once with Hanks' balanced salt solution containing 1 mM EDTA. The cells were collected by centrifugation, washed gently in 2 ml of TEDG buffer and homogenized in 300 μl of TEDG buffer containing protease inhibitors [soybean trypsin inhibitor 5 mg/ml (Sigma), leupetin 1 mg/ml (Sigma), and phenylmethylsulfonyl fluoride 1 mg/ml (Sigma) by 40 strokes of a Dounce homogenizer. The homogenate was centrifuged at 800×g for 10 minutes. The crude nuclear pellet was resuspended in 300 μl of TEDGK buffer (10 mM Tris-HCl, 1.5 mM EDTA-4Na, 10 mM dithiothreitol, 10% (v/v) glycerol, 0.8 M KCl, pH 8.5 at 4° C.). The nuclear ER levels were then determined as described below.
The nuclear extract previously obtained was incubated with 10 nM [^3 H]-estradiol plus or minus radioinert diethylstilbestrol for 1 hour at 0-4° C., with resuspension by agitation every 15 minutes. The sample was then centrifuged at 180,000×g for 30 minutes, then 200 μl of the supernatant obtained was layered onto linear 1-20% sucrose gradients prepared in TEDGMK buffer. As before, the gradients were centrifuged at 406,000×g for 2.5 hours in a vertical rotor. Following centrifugation, 30 fractions of […] were collected and the radioactivity in each sample was determined.

estrogen receptor (ER) = format: in vivo, female Sprague/Dawley rats
Description: as §1, §2
(§3) Estrogen and progesterone receptor levels were determined by the hydroxyapatite assay as described by Clark et al. (J. Steroid, Biochem., 16, 323-328 (1982)). […] Following the incubations, samples were counted and specific binding was calculated by subtraction of nonspecific from total binding. Assuming one steroid molecule binds to one estrogen/progesterone receptor, the number of moles of receptor can be calculated given the specific activity of the radioligand. […] Significant differences were determined by ANOVA.

[3] = test system: progesterone receptor (PR); format: in vivo, female Sprague/Dawley rats
Description: as §1, §2, §3

estrogen receptor = settings: female rat; cited from earlier work
[4] = Table 11, compound alone: TCDD 0.256 or MCDF 100 μmol/kg, or estradiol

In the case of `Clc1cc2c(cc1Cl)Oc1cc(Cl)c(Cl)cc1O2` [TCDD, 2,3,7,8-tetrachloridibenzo-p-dioxin], the “immunoreactive ER protein” value (nuclear ER [1]; concentration-dependent, antibodies to human ER) is listed as “decrease in immunoreactive ER protein”, the “levels of occupied nuclear ER complex” value (nuclear ER [1]; cotreatment 10 nM TCDD plus [3H]-17β-estradiol) is listed as “did not affect” and the “occupied nuclear ER levels” value (nuclear ER [1]; pretreatment with TCDD 6 or 12 hours prior to radiolabeled hormone) is listed as “significant downregulation”. For the same molecule, the “Uterine Wet Weight” value (female rat uterus; compound alone: TCDD 0.256 or MCDF 100 μmol/kg, or estradiol) was 0.086 ± 0.011 % body wt, the “Uterine Wet Weight” value (female rat uterus; cotreatment with E-2) was 0.245 ± 0.026 % body wt and the “nuclear ER levels” value (nuclear ER [2]) was “decrease in nuclear ER levels”. For the same molecule, the “Hepatic ERc” value (estrogen receptor (ER); TCDD 0.256 μmol/kg) was 1.7 ± 0.3 fmol/mg protein, the “Hepatic ERn” value (estrogen receptor (ER); TCDD 0.256 μmol/kg) was 2.3 ± 0.6 fmol/mg protein and the “Uterine ERc” value (estrogen receptor (ER); TCDD 0.256 μmol/kg) was 92.1 ± 8.2 fmol/mg protein. The “Uterine ERn” value (estrogen receptor (ER); TCDD 0.256 μmol/kg) was 10.6 ± 0.6 fmol/mg protein, the “Hepatic ERc” value (estrogen receptor (ER); [4]) was 2.2 ± 0.8 fmol/mg protein and the “Hepatic ERn” value (estrogen receptor (ER); [4]) was 2.4 ± 0.4 fmol/mg protein. For the same molecule, the “Uterine ERc” value (estrogen receptor (ER); [4]) was 57.8 ± 6.3 fmol/mg protein, the “Uterine ERn” value (estrogen receptor (ER); [4]) was 11.7 ± 0.8 fmol/mg protein and the “Hepatic ERc” value (estrogen receptor (ER); Table 11, cotreatment with E-2) was 6.8 ± 1.0 fmol/mg protein. For the same molecule, the “Hepatic ERn” value (estrogen receptor (ER); Table 11, cotreatment with E-2) was 4.0 ± 0.8 fmol/mg protein, the “Uterine ERc” value (estrogen receptor (ER); Table 11, cotreatment with E-2) was 82.8 ± 5.4 fmol/mg protein and the “Uterine ERn” value (estrogen receptor (ER); Table 11, cotreatment with E-2) was 17.4 ± 1.0 fmol/mg protein. For the same molecule, the “Hepatic PRc” value ([3]; TCDD 0.256 μmol/kg) was 38.3 ± 3.9 fmol/mg protein, the “Hepatic PRn” value ([3]; TCDD 0.256 μmol/kg) was 5.9 ± 1.1 fmol/mg protein and the “Uterine PRc” value ([3]; TCDD 0.256 μmol/kg) was 82 ± 30.2 fmol/mg protein. The “Uterine PRn” value ([3]; TCDD 0.256 μmol/kg) was 190 ± 14.2 fmol/mg protein, the “Hepatic PRc” value [3, 4] was 61.9 ± 7.3 fmol/mg protein and the “Hepatic PRn” value [3, 4] was 5.9 ± 0.4 fmol/mg protein. The “Uterine PRc” value [3, 4] was 898.0 ± 49.2 fmol/mg protein, the “Uterine PRn” value [3, 4] was 180 ± 9.9 fmol/mg protein and the “Hepatic PRc” value ([3]; Table 11, cotreatment with E-2) was 110.3 ± 8.3 fmol/mg protein. For the same molecule, the “Hepatic PRn” value ([3]; Table 11, cotreatment with E-2) was 6.8 ± 1.3 fmol/mg protein, the “Uterine PRc” value ([3]; Table 11, cotreatment with E-2) was 811.3 ± 27.1 fmol/mg protein and the “Uterine PRn” value ([3]; Table 11, cotreatment with E-2) was 511 ± 19.3 fmol/mg protein. The “constitutive and 17β-estradiol induced uterine and hepatic estrogen receptor levels” value (estrogen receptor) was “decreased”.
